Data as given in publication PMC9241686 (Microbiology Spectrum, 2022).
Like-named read-outs stand apart in the source and are kept apart here.

What was measured:
macrophages (RAW 264.7) [1] = test: cells; format: cell-based, murine; settings: RAW 264.7 infected macrophages, high-content assay, 72 h; for IC50: Mus musculus, RAW264.7, read-out: Macrophage IC50
[2] = system: intracellular M. tuberculosis; test: microbe, parasite or virus in culture; format: cell-based, Mycobacterium tuberculosis; settings: for IC50 / Intracellular TB IC50: M. tuberculosis in RAW 264.7, high-content assay, 72 h; for IC50: read-out: Intracellular TB IC50; for selectivity index (SI): cytotoxicity IC50 over intracellular M. tuberculosis IC50; for fold difference between extracellular and intracellular IC50: extracellular versus intracellular M. tuberculosis
[3] = system: extracellular M. tuberculosis; test: microbe, parasite or virus in culture; format: cell-based; settings: Mycobacterium tuberculosis
HepG2 cells [4] = test: cells; format: cell-based, human; settings: 72 h, CellTiter-Glo; for IC50: Homo sapiens, HepG2
macrophages (RAW 264.7) [5] = system: macrophages (RAW 264.7); design: method as in PMID 35046812; settings: RAW 264.7 infected macrophages, high-content assay; primary screen hits; read-out: Macrophage IC50; cited from earlier work
[6] = system: intracellular M. tuberculosis; design: method as in PMID 35046812; settings: M. tuberculosis in RAW 264.7, high-content assay; primary screen hits; read-out: Intracellular TB IC50; cited from earlier work
[7] = system: extracellular M. tuberculosis; design: method as in PMID 35046812; settings: standard culture medium; primary screen hits; read-out: Extracellular TB IC50; cited from earlier work
HepG2 cells [8] = system: HepG2 cells; design: method as in PMID 35046812; settings: standard culture medium; primary screen hits; cited from earlier work
[9] = system: extracellular M. tuberculosis; test: microbe, parasite or virus in culture; format: cell-based, Mycobacterium tuberculosis; settings: for IC50: Mycobacterium tuberculosis, 168 h, read-out: Cholesterol IC50; for Fold-change: glucose IC50 versus cholesterol IC50
[10] = Mycobacterium tuberculosis, RAW264.7, 72 h
[11] = 120 h, read-out: Extracellular TB IC50
[12] = glucose as carbon source, read-out: Glucose IC50

Row | Compound | IC50 (macrophages (RAW 264.7) [1]) [µM] | IC50 [2, 10] [µM] | IC50 [3, 11] [µM] | IC50 (HepG2 cells [4]) [µM] | further results
1 | S=C(Nc1ccccc1)Nc1ccc(Cl)cc1 [Compound 17] | 42 | < 20 | 104 | 91 | IC50 [2]: 16 µM
2 | COc1ccc(NC(=S)Nc2ccc(C(N)=O)cc2)cc1 [Compound 13] | > 100 | > 100 | > 200 | > 100 | Intracellular TB IC50 [2]: inactive
3 | CC(C)(C)c1nnc(NC(=O)Nc2ccc(Cl)cc2)s1 [Compound 34] | > 100 | 84 | > 200 | > 100 | Intracellular TB IC50 [2]: lost activity
4 | COc1ccc(NC(=O)Nc2nc3ccccc3s2)cc1 [Compound 30] | 52 | – | > 200 | 54 | –
5 | COc1cccc(NC(=S)Nc2cccc(C(F)(F)F)c2)c1 [Compound 25] | 17 | 9.6 | 63 | 24 | –
6 | FC(F)(F)c1cccc(NC(=S)Nc2cccnc2)c1 [Compound 23] | 30 | – | 125 | 62 | Macrophage IC50 (macrophages (RAW 264.7) [1]): cytotoxicity to macrophages
7 | COc1ccc(NC(=S)Nc2ccccc2Cl)cc1 [Compound 15] | > 100 | < 20 | > 200 | > 100 | IC50 [2]: 14 µM
8 | COc1ccc(NC(=S)Nc2ccc(Br)cc2)cc1 [Compound 24] | 72 | 2.1 | 16 | > 100 | fold increase in potency ([2]; intracellular IC50, bromine replacing fluorine): 5 fold
9 | Fc1cccc(NC(=S)Nc2ccccc2C(F)(F)F)c1 [Compound 7] | 53 | > 100 | > 200 | 86 | –
10 | O=C(Nc1ccccc1)Nc1ccc(Cl)cc1 [Compound 33] | > 100 | > 100 | > 200 | > 100 | –
11 | CCOc1ccc(NC(=S)Nc2ccccc2)cc1 [Compound 1] | – | – | – | – | IC50 (macrophages (RAW 264.7) [5]): > 100 µM; IC50 [6]: 0.4 µM; IC50 [7]: > 20 µM; IC50 (HepG2 cells [8]): > 100 µM
12 | CNC(=O)Nc1ccc(Br)cc1 [Compound 31] | > 100 | 64 | > 200 | > 100 | –
13 | COc1ccc(NC(=S)Nc2ccccc2C(F)(F)F)cc1OC [Compound 18] | > 100 | > 100 | > 200 | > 100 | Intracellular TB IC50 [2]: inactive
14 | Cc1cc(C)nc(NC(=N)Nc2ccc(Br)cc2)n1 [Compound 5] | – | – | – | – | IC50 (macrophages (RAW 264.7) [5]): 18 µM; IC50 [6]: 1.3 µM; IC50 [7]: 8.2 µM; IC50 (HepG2 cells [8]): 22 µM
15 | S=C(Nc1ccccc1)NC1CCCCC1 [Compound 9] | > 100 | > 100 | 130 | > 100 | Intracellular TB IC50 [2]: loss of intracellular activity
16 | FC(F)(F)c1cccc(NC(=S)NCCc2ccc(Cl)cc2)c1 [Compound 26] | 9.3 | – | 30 | 23 | –
17 | O=C(Nc1ccc(C(F)(F)F)cc1)Nc1cccc(Cl)c1 [Compound 4] | – | – | – | – | IC50 (macrophages (RAW 264.7) [5]): 1.8 µM; IC50 [6]: 0.7 µM; IC50 [7]: 15 µM; IC50 (HepG2 cells [8]): 5.6 µM
18 | O=C(NC(=S)Nc1ccc2oc(-c3ccccc3)nc2c1)c1ccccc1 [Compound 27] | 80 | – | > 200 | > 100 | selectivity index (SI) [2]: > 200; fold difference between extracellular and intracellular IC50 [2]: > 500 fold

Row | Compound | IC50 (macrophages (RAW 264.7) [1]) [µM] | IC50 [2, 10] [µM] | IC50 [3, 11] [µM] | IC50 (HepG2 cells [4]) [µM] | further results
19 | CC(C)(C)c1nnc(NC(=S)Nc2ccccc2)s1 [Compound 22] | > 100 | < 1 | 11 | > 99 | IC50 [2]: 0.51 µM; selectivity index (SI) [2]: > 200; fold difference between extracellular and intracellular IC50 [2]: > 20 fold; IC50 [3, 12]: 11 µM; IC50 [9]: 5.7 µM; Fold-change [9]: 1.9
20 | COc1ccc2nc(NC(=O)Nc3ccc(Cl)cc3)sc2c1 [Compound 29] | 56 | – | > 200 | > 100 | –
21 | O=C(Nc1ccc(Cl)cc1)Nc1ccc(Nc2ccccc2)cc1 [Compound 3] | – | – | – | – | IC50 (macrophages (RAW 264.7) [5]): 68 µM; IC50 [7]: > 20 µM; IC50 (HepG2 cells [8]): > 100 µM
22 | O=C(Nc1cccc(Cl)c1)NC1CCCCC1 [Compound 35] | > 100 | 4.5 | 28 | > 100 | HepG2 IC50 (HepG2 cells [4]): no cytotoxicity
23 | COc1cccc(NC(=O)Nc2ccc(C(F)(F)F)cc2)c1 [Compound 40] | 5.2 | – | 31 | 11 | –
24 | CCOc1ccc(NC(=S)Nc2ccccc2C(=O)OC)cc1 [Compound 11] | 46 | – | > 200 | > 100 | –
25 | CCOc1ccc(NC(=S)NC)cc1 [Compound 8] | > 100 | < 20 | 80 | > 100 | IC50 [2]: 10 µM
26 | CCOc1ccc(NC(=S)Nc2ccc(C)c(C#N)c2)cc1 [Compound 2] | – | – | – | – | IC50 (macrophages (RAW 264.7) [5]): 47 µM; IC50 [6]: 0.3 µM; IC50 [7]: 9.5 µM; IC50 (HepG2 cells [8]): 64 µM
27 | COc1cc(NC(=S)Nc2ccc(C(F)(F)F)cc2)cc(OC)c1 [Compound 37] | 29 | – | > 200 | 49 | –
28 | Cc1nnc(NC(=O)Nc2ccccc2)s1 [Compound 36] | > 100 | > 100 | > 200 | > 100 | –
29 | CC(C)c1ccc(NC(=O)Nc2ccccc2)cc1 [Compound 38] | 85 | > 100 | > 200 | 55 | –
30 | CCCc1nnc(NC(=S)Nc2ccccc2)s1 [Compound 21] | – | – | 14.5 | > 100 | selectivity index (SI) [2]: > 200
31 | CNC(=S)Nc1ccccc1 [Compound 10] | > 100 | > 100 | > 200 | > 100 | –
32 | CCOc1ccc2nc(NC(=S)Nc3ccccc3)sc2c1 [Compound 16] | 28 | < 1 | 26 | 73 | IC50 [2]: 0.75 µM; IC50 [3, 12]: 26 µM; IC50 [9]: 6.6 µM; Fold-change [9]: 3.9
33 | COc1ccc(NC(=S)Nc2ccc(F)cc2)cc1 [Compound 20] | > 100 | 9.2 | 91 | > 100 | –
34 | COc1ccc(C(F)(F)F)cc1NC(=O)Nc1cccc(Cl)c1 [Compound 28] | 3 | – | 25 | 12 | –
35 | COc1ccc(NC(=S)Nc2ccccc2C)cc1 [Compound 12] | > 100 | < 20 | > 200 | > 100 | IC50 [2]: 19 µM
36 | N#Cc1ccc(NC(=O)Nc2ccc(Cl)cc2)cc1 [Compound 39] | 3 | – | 11 | 6.5 | –
